ChEMBL document CHEMBL1201862, “PubChem BioAssay data set” (2004)
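Compound exposure: 48 hours, 5 concentrations, 96-well plates. The concentration for 50% growth inhibition is given as GI50.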 Calls of active or inactive are those of the source. Cut-off read from the data, not from the text of the source: active = GI50 up to about 1.1 µM and inactive = higher.

Legend:
Assay in all cases: NCI anticancer screen, dose series, 48 h
786-0 = test system: 786-0
A498 = test system: A498
A549 = test system: A549
ACHN = test system: ACHN
BT-549 = test system: BT-549
CAKI-1 = test system: CAKI-1
CCRF-CEM = test system: CCRF-CEM
COLO 205 = test system: COLO 205
DU-145 = test system: DU-145
EKVX = test system: EKVX
HCC 2998 = test system: HCC 2998
HCT-116 = test system: HCT-116
HCT-15 = test system: HCT-15
HL-60 = test system: HL-60
HOP-62 = test system: HOP-62
HOP-92 = test system: HOP-92
HT-29 = test system: HT-29
Hs-578T = test system: Hs-578T
IGROV-1 = test system: IGROV-1
K562 = test system: K562
KM12 = test system: KM12
LOX IMVI = test system: LOX IMVI
M14 = test system: M14
MCF7 = test system: MCF7
MDA-MB-231 = test system: MDA-MB-231
MDA-MB-435 = test system: MDA-MB-435
MDA-N = test system: MDA-N
MOLT-4 = test system: MOLT-4
Malme-3M = test system: Malme-3M
NCI-H226 = test system: NCI-H226
NCI-H23 = test system: NCI-H23
NCI-H460 = test system: NCI-H460
NCI-H522 = test system: NCI-H522
NCI/ADR-RES = test system: NCI/ADR-RES
OVCAR-3 = test system: OVCAR-3
OVCAR-4 = test system: OVCAR-4
OVCAR-5 = test system: OVCAR-5
OVCAR-8 = test system: OVCAR-8
PC-3 = test system: PC-3
RPMI-8226 = test system: RPMI-8226
RXF 393 = test system: RXF 393
SF-268 = test system: SF-268
SF-295 = test system: SF-295
SF-539 = test system: SF-539
SK-MEL-28 = test system: SK-MEL-28
SK-MEL-2 = test system: SK-MEL-2
SK-MEL-5 = test system: SK-MEL-5
SK-OV-3 = test system: SK-OV-3
SN12C = test system: SN12C
SNB-19 = test system: SNB-19
SNB-75 = test system: SNB-75
SR = test system: SR
SW-620 = test system: SW-620
T47D = test system: T47D
TK-10 = test system: TK-10
U-251 = test system: U-251
UACC-257 = test system: UACC-257
UACC-62 = test system: UACC-62
UO-31 = test system: UO-31

## CC(C)[Si]1(C(C)C)OCC2OC(n3c(C(=O)c4ccccc4)cc(=O)[nH]c3=O)CC2O[Si](C(C)C)(C(C)C)O1 (centres undefined)
786-0
  GI50: 3050 nM (inactive)
A498
  GI50: 11400 nM (inactive)
A549
  GI50: 7280 nM (inactive)
ACHN
  GI50: 3160 nM (inactive)
BT-549
  GI50: 4690 nM (inactive)
CAKI-1
  GI50: 5530 nM (inactive)
CCRF-CEM
  GI50: 2120 nM (inactive)
COLO 205
  GI50: 3720 nM (inactive)
DU-145
  GI50: 11600 nM (inactive)
EKVX
  GI50: 3710 nM (inactive)
HCC 2998
  GI50: 1650 nM (inactive)
HCT-116
  GI50: 3150 nM (inactive)
HCT-15
  GI50: 2720 nM
HL-60
  GI50: 2670 nM (inactive)
HOP-62
  GI50: 7030 nM (inactive)
HOP-92
  GI50: 2330 nM (inactive)
HT-29
  GI50: 1900 nM (inactive)
Hs-578T
  GI50: 2260 nM (inactive)
IGROV-1
  GI50: 3280 nM (inactive)
K562
  GI50: 3050 nM (inactive)
KM12
  GI50: 2310 nM (inactive)
LOX IMVI
  GI50: 2000 nM (inactive)
M14
  GI50: 3660 nM (inactive)
MCF7
  GI50: 2940 nM (inactive)
MDA-MB-231
  GI50: 2370 nM (inactive)
MDA-MB-435
  GI50: 3100 nM (inactive)
MDA-N
  GI50: 3200 nM (inactive)
MOLT-4
  GI50: 1880 nM (inactive)
Malme-3M
  GI50: 3750 nM (inactive)
NCI-H226
  GI50: 2940 nM (inactive)
NCI-H23
  GI50: 2520 nM (inactive)
NCI-H460
  GI50: 3580 nM (inactive)
NCI-H522
  GI50: 1700 nM (inactive)
NCI/ADR-RES
  GI50: 10200 nM (inactive)
OVCAR-3
  GI50: 2080 nM (inactive)
OVCAR-4
  GI50: 2930 nM (inactive)
OVCAR-5
  GI50: 3400 nM (inactive)
OVCAR-8
  GI50: 1990 nM (inactive)
PC-3
  GI50: 2200 nM (inactive)
RPMI-8226
  GI50: 2850 nM (inactive)
RXF 393
  GI50: 2540 nM (inactive)
SF-268
  GI50: 2780 nM (inactive)
SF-295
  GI50: 3780 nM (inactive)
SF-539
  GI50: 2880 nM (inactive)
SK-MEL-28
  GI50: 3720 nM (inactive)
SK-MEL-2
  GI50: 5050 nM (inactive)
SK-MEL-5
  GI50: 4370 nM (inactive)
SK-OV-3
  GI50: 11900 nM (inactive)
SN12C
  GI50: 2390 nM (inactive)
SNB-19
  GI50: 7710 nM (inactive)
SNB-75
  GI50: 3020 nM (inactive)
SR
  GI50: 2610 nM (inactive)
SW-620
  GI50: 2810 nM (inactive)
T47D
  GI50: 4360 nM (inactive)
TK-10
  GI50: 3240 nM (inactive)
U-251
  GI50: 3150 nM (inactive)
UACC-257
  GI50: 2340 nM (inactive)
UACC-62
  GI50: 2810 nM (inactive)
UO-31
  GI50: 2470 nM (inactive)
